Test results published in US20230073214A1, “BIOACTIVE RELEASING MEMBRANE FOR ANALYTE SENSOR” (DexCom, Inc., priority 2021, published 2023).

What was measured:
[1] = in vitro bioactive release profile of dexamethasone acetate from bioactive releasing membrane 70 (percent cumulative release by HPLC); format: physicochemical; details: over a time span of 16-35 days
Method: With reference to FIG. 5A, an exemplary in vitro bioactive release profiles for dexamethasone acetate is shown using exemplary bioactive releasing membrane 70. The percent cumulative release of dexamethasone acetate can be determined using HPLC, for example using a Phenomenex Kinetex 5μ EVO C18 100 Å, 50×3.0 mm column held at 25° C. with a 254 nm UV detector and an elution gradient of A: Water with 0.1% formic acid/B: Acetonitrile with 0.1% formic acid (vol/vol), where the gradient from time 0 to 2 minutes is 90% A/10% B; from 2-5 minutes is 10% A/90% B; and from 5 minutes is 90% A/10% B. Dexamethasone acetate and dexamethasone HPLC standards are prepared at concentrations of about 0.1-20 ug/mL.
With reference to FIG. 5B, experimental data of a release rate of a bioactive agent (dexamethasone acetate) from a bioactive releasing membrane 70 initially or during the first time period being greater than the release rate of the bioactive agent from the bioactive releasing membrane initially or during the second time period and the release rate of the bioactive agent from the bioactive releasing membrane initially or during the second time period is greater than the release rate of the bioactive agent from the bioactive releasing membrane initially or during the third time period is shown. […]

[2] = additional release experiments with dexamethasone salts in different bioactive releasing membrane combinations; format: physicochemical; details: in a water-soluble cellulosic based polymer
Method: Additional experiments were carried out using dexamethasone salts in different bioactive releasing membrane combinations.

third release rate: release of the remaining amount [1] | release profile [2] | Compound
approximately 10% | – | CC(=O)OCC(=O)[C@@]1(O)[C@H](C)C[C@H]2[C@@H]3CCC4=CC(=O)C=C[C@]4(C)[C@@]3(F)[C@@H](O)C[C@@]21C [dexamethasone acetate]
– | bolus release profile | C[C@@H]1C[C@H]2[C@@H]3CCC4=CC(=O)C=C[C@]4(C)[C@@]3(F)[C@@H](O)C[C@]2(C)[C@@]1(O)C(=O)COP(=O)(O)O [dexamethasone sodium phosphate]
